Experimental data taken from patent EP4781986A1, “PHARMACEUTICAL COMPOSITION HAVING IMPROVED PHARMACOKINETIC PROPERTIES” (Sichuan Purity Pharmaceutical Co., Ltd., priority 2023, dated 2025).
Read-outs that look alike come from different tables or passages of the source. Each block holds one compound with its values, some of them ahead of it.

Tests used:
CGRP receptor complex = target: T1, CGRP receptor complex (Homo sapiens, UniProt O60894+Q16602); assay: determination of cell functional antagonism - cAMP determination; type: cell-based; details: inhibition of CGRP-stimulated cAMP formation in SK-N-MC cells
T1 construct: SK-N-MC (neuroepithelioma cells) from National Science and Technology Infrastructure; host or cells: SK-N-MC
Procedure: A CGRP receptor complex was coupled with Gs in G protein, the combination of CGRP and CGRP receptor complex led to Gs activation, and cAMP (3',5'-cyclic adenosine monophosphate) was produced.
The ability of the compound of the present invention to inhibit CGRP-stimulated cAMP formation in SK-N-MC cells was determined.
SK-N-MC (neuroepithelioma cells) from National Science and Technology Infrastructure - Biomedical Materials and Cell Resources.
The SK-N-MC cells were resuscitated and cultured in advance, and a cell confluence degree should be 70%-80% before use.
4.2 A sample dilution, a tested compound and α-CGRP (human) were prepared.
The SK-N-MC cells were digested, centrifuged, then resuspended with the sample dilution, and inoculated into a 384-well plate. Each well was added with the α-CGRP (human) and the tested compound respectively, and blown and mixed evenly. The well plate was adhered with a sealing film, and placed on an enzyme-labeled incubator to incubate at 25°C.
4.4 cAMP determination: carried out according to LANCE Ultra cAMP Kit specification EucAMP tracer and ULight-anti-cAMP working solutions were prepared in the dark, respectively added into the well plate, and blown and mixed evenly. The well plate was adhered with a sealing film, and placed on an enzyme-labeled incubator to incubate at 25°C.
4.5 A luminescence value was read by a chemiluminescent module of an automatic enzyme-labeled instrument.

[1] = test system: Plasma of cynomolgus monkey; assay: plasma protein binding rate test, equilibrium dialysis (monkey); type: in vitro ADME; details: 1 µM, 37°C, 6 hours
Procedure: (§1) Protein binding rates of the compound of the present invention in plasma of rat, monkey and human were determined by an equilibrium dialysis method. Tested compounds of the present invention were the compounds in Examples 6 and 8.
(§2) 3.1 A dry dialysis membrane was rinsed with ultrapure water for 2-3 times, and then soaked in a phosphate buffer for 1 hour for later use. Polytetrafluoroethylene module was soaked in 20% ethanol for 30 minutes, and then surface moisture was dried with dust-free paper for later use. The pretreated dialysis membrane was assembled into a dialysis plate according to the product specification, and one side (receptor compartment) of an osmotic membrane in each dialysis well was added with 100 µL of receptor fluid (100 mM phosphate buffer solution plus 0.002% Tween 80).
(§3) 3.2 The plasma was put into a centrifuge tube, a working solution of a tested substance was added into the plasma, wherein a final concentration was 1 µM, and the mixture was turned upside down and mixed evenly (this step was carried out in ice bath). 20 µL of drug-containing plasma each was taken, and was respectively transferred to a 96-well sample plate according to two parts in parallel, and stored in a refrigerator at -20°C as a T0 sample.
(§4) 3.3 Another 100 µL of the above drug-containing plasma was transferred to the other side (sample compartment) of the membrane in the dialysis device according to two parts in parallel, and incubated under vibration at a constant temperature of 37°C for 6 hours. […]
(§5) A plasma protein binding rate and a recovery rate of the compound in plasma were calculated by the following formulas: dissociation percentage (%) = CB /CA; [formula] plasma protein binding rate (fb%) = 1−dissociation percentage (%); [formula] recovery rate (%) = (CB+CA)/CT0 [formula] wherein CB was a concentration of the compound in the receptor fluid after equilibrium dialysis; CA was a concentration of the compound in the drug-containing plasma after equilibrium dialysis; and CT0 was an initial concentration of the compound in plasma.

Plasma of human = assay: plasma protein binding rate test, equilibrium dialysis (human); type: in vitro ADME; details: 1 µM, 37°C, 6 hours
Procedure: as §1, §2, §3, §4, §5

[2] = stability test in liver microsomes (rat); type: in vitro ADME; details: for % remaining (60 min): Rat liver microsomes
Procedure: (§6) The stability of the compound of the present invention in liver microsomes of rat, monkey and human was determined. Tested compounds of the present invention were the compounds in Examples 6 and 8 , and a control drug was Zavegepant.
(§7) 3.2 An appropriate amount of liver microsome solution was transferred into a 1 mL 96-deep-well plate, added with a tested drug liquid (or a probe substrate solution), and pre-incubated in a thermal mixer at 37°C for 5 minutes. Two parts of mixed solutions were taken out from the system and added with 1×PBS to replace NADPH, and the mixed solutions were taken out at 0 and 60 minutes respectively, and added with methanol (containing an internal standard) to terminate the reaction. In the remaining mixed system, each well was added with NADPH to start the reaction. In the tested substance group, mixed solutions were taken out from the system at 0, 5, 15, 30, 45 and 60 minutes, and in the control group, mixed solutions were taken out from the system at 0, 30 and 60 minutes, and the mixed solutions were added methanol (containing an internal standard) to terminate the reaction. All samples of the terminated reaction were mixed evenly and centrifuged in a centrifuge at 3800 rpm for 15 minutes, and the supernatant was taken for LC-MS/MS analysis.
(§8) A peak area was determined by an extracted ion chromatogram. A slope value k was determined by linear regression of a remaining percentage of a parent drug relative to a natural logarithm of an incubation time curve. According to the slope, in-vitro half-life periods (t1/2) were respectively calculated, and in-vitro intrinsic clearance rates (CLint, represented by µL/min/mg protein) were calculated. Calculation formulas were as follows: t1/2 = ln2/k = 0.693/k; and CLint = 0.693/t1/2 /liver microsome protein concentration [formula]

Plasma of SD rat = assay: plasma protein binding rate test, equilibrium dialysis (rat); type: in vitro ADME; details: 1 µM, 37°C, 6 hours
Procedure: as §1, §2, §3, §4, §5

[3] = stability test in liver microsomes (monkey); type: in vitro ADME
Procedure: as §6, §7, §8

[4] = stability test in liver microsomes (human); type: in vitro ADME; details: for % remaining (60 min): Human liver microsomes
Procedure: as §6, §7, §8

[5] = PK properties in SD rats with different concentrations of alkyl glycoside (0.05% and 5% DDM); type: in vivo; details: intranasal, 5% DDM vs without DDM
Source text: During preparation of a test sample in the Test Example 7, drug solution groups with 0.05% and 5% dodecyl-β-D-maltosides (DDM) were established and prepared in parallel, so as to compare and observe changes of PK properties in rats administered with the drug solution groups with two different concentrations of dodecyl-β-D-maltosides (DDM).

[6] = oral administration with alkyl glucoside, according to CN202180077330.9; cited from earlier work
[7] = PK properties in SD rats with or without 0.2% alkyl glycoside (DDM); type: in vivo; details: for Tmax: Sprague-Dawley, rat, in vivo, inhaled or intranasal
Source text: During preparation of a test sample in the Test Example 5, a drug solution group with 0.2% dodecyl-β-D-maltoside (DDM) was also established and prepared in parallel, so as to compare and observe changes of PK properties in rats administered with the drug solution group with 0.2% dodecyl-β-D-maltoside (DDM) and the drug solution group without dodecyl-β-D-maltoside (DDM).

T1 sequence (Q16602 23-461): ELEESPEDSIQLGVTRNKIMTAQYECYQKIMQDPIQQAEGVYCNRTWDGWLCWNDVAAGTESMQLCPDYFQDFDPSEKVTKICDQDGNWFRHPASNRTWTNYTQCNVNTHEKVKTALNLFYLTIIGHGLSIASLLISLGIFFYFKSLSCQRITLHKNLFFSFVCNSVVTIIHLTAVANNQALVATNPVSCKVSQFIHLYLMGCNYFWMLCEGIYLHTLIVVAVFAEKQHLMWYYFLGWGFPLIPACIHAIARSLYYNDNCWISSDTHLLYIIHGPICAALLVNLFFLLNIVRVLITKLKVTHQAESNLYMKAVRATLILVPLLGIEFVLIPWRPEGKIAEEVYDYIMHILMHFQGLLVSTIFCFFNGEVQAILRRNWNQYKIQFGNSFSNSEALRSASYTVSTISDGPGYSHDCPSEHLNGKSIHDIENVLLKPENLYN
T1 sequence (O60894 27-148): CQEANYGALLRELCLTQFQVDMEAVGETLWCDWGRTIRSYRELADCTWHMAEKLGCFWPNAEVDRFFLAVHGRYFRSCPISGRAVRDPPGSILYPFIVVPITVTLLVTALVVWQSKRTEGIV

Structure (SMILES): Cc1cc(C[C@@H](NC(=O)N2CCC(c3cc4c([nH]c3=O)CCCS4)CC2)C(=O)N2CCN(C3CCN(C)CC3)CC2)cc2cn[nH]c12 [Example 12, (R)-N-(3-(7-methyl-1H-indazole-5-yl)-1-(4-(1-methylpiperidine-4-yl)piperazine-1-yl)-1-oxopropan-2-yl)-4-(6-oxo-3,4,5,6-tetrahydro-2H-thiopyrano[3,2-b]pyridine-7-yl)piperidine-1-formamide]
- IC50 (CGRP receptor complex): 16.9 nM

Structure (SMILES): [2H]C1([2H])SCc2cc(C3CCN(C(=O)N[C@H](Cc4cc(C)c5[nH]ncc5c4)C(=O)N4CCN(C5CCN(C)CC5)CC4)CC3)c(=O)[nH]c21 [Example 14, (R)-N-(3-(7-methyl-1H-indazole-5-yl)-1-(4-(1-methylpiperidine-4-yl)piperazine-1-yl)-1-oxopropan-2-yl)-4-(2-oxo-1,2,5,7-tetrahydrothieno[3,4-b]pyridine-3-yl-7,7-d2)piperidine-1-formamide]
- IC50 (CGRP receptor complex): 6.85 nM

Structure (SMILES): Cc1cc(C[C@@H](NC(=O)N2CCC(c3cc4c([nH]c3=O)CCSC4)CC2)C(=O)N2CCN(C3CCN(C)CC3)CC2)cc2cn[nH]c12 [Example 15, (R)-N-(3-(7-methyl-1H-indazole-5-yl)-1-(4-(1-methylpiperidine-4-yl)piperazine-1-yl)-1-oxopropan-2-yl)-4-(2-oxo-1,5,7,8-tetrahydro-2H-thiopyrano[4,3-b]pyridine-3-yl)piperidine-1-formamide]
- IC50 (CGRP receptor complex): 10.1 nM

Structure (SMILES): Cc1cc(C[C@@H](NC(=O)C2CCN(c3cc4c([nH]c3=O)SCCC4)CC2)C(=O)N2CCN(C3CCN(C)CC3)CC2)cc2cn[nH]c12 [Example 21, (R)-N-(3-(7-methyl-1H-indazole-5-yl)-1-(4-(1-methylpiperidine-4-yl)piperazine-1-yl)-1-oxopropan-2-yl)-1-(7-oxo-3,4,7,8-tetrahydro-2H-thiopyrano[2,3-b]pyridine-6-yl)piperidine-4-formamide]
- IC50 (CGRP receptor complex): 590 nM

Structure (SMILES): Cc1cc(C[C@@H](NC(=O)N2CCC(c3cc4c([nH]c3=O)SCCC4)CC2)C(=O)N2CCC(N3CCN(C)CC3)CC2)cc2cn[nH]c12 [Example 25, (R)-N-(3-(7-methyl-1H-indazole-5-yl)-1-(4-(4-methylpiperazine-1-yl)piperidine-1-yl)-1-oxopropan-2-yl)-4-(7-oxo-3,4,7,8-tetrahydro-2H-thiopyrano[2,3-b]pyridine-6-yl)piperidine-1-formamide]
- IC50 (CGRP receptor complex): 0.79 nM

Structure (SMILES): [2H]C([2H])([2H])N1CCC(N2CCN(C(=O)[C@@H](Cc3cc(C)c4[nH]ncc4c3)NC(=O)N3CCC(c4cc5c([nH]c4=O)SCC5)CC3)CC2)CC1 [Example 29, (R)-N-(3-(7-methyl-1H-indazole-5-yl)-1-(4-(1-(methyl-d3)piperidine-4-yl)piperazine-1-yl)-1-oxopropan-2-yl)-4-(6-oxo-2,3,6,7-tetrahydrothieno[2,3-b]pyridine-5-yl)piperidine-1-formamide]
- fb (%) [1]: 56.1%
- fb (%) (Plasma of human): 50.2%
- half-life at 1 µM ([2]; Rat liver microsomes 0.5 mg/mL, 1.0 µM): > 120 min
- % remaining (60 min) [2]: 105%
- fb (%) (Plasma of SD rat): 64.3%
- microsomal CLint at 1 µM ([3]; Monkey liver microsomes): 1.6 µL/min/mg
- half-life at 1 µM ([3]; Monkey liver microsomes 0.5 mg/mL, 1.0 µM): > 120 min
- % remaining (60 min) ([3]; Monkey liver microsomes): 98.9%
- half-life at 1 µM ([4]; Human liver microsomes 0.5 mg/mL, 1.0 µM): > 120 min
- % remaining (60 min) [4]: 115%

Structure (SMILES): Cc1cc(C[C@@H](NC(=O)N2CCC(c3cc4c([nH]c3=O)SCC4)CC2)C(=O)N2C3CCC2CC(N2CCCCC2)C3)cc2cn[nH]c12 (stereo partly drawn) [Example 34, N-((2R)-3-(7-methyl-1H-indazole-5-yl)-1-oxo-1-(3-(piperidine-1-yl)-8-azabicyclo[3.2.1]octane-8-yl)propan-2-yl)-4-(6-oxo-2,3,6,7-tetrahydrothieno[2,3-b]pyridine-5-yl)piperidine-1-formamide]
- IC50 (CGRP receptor complex): 0.2 nM

- IC50 (CGRP receptor complex): 26 nM
Structure (SMILES): Cc1cc(C[C@@H](NC(=O)N2CCC(c3cc4c([nH]c3=O)C3CCC4C3)CC2)C(=O)N2CCN(C3CCN(C)CC3)CC2)cc2cn[nH]c12 (stereo partly drawn) [Example 45, N-((R)-3-(7-methyl-1H-indazole-5-yl)-1-(4-(1-methylpiperidine-4-yl)piperazine-1-yl)-1-oxopropan-2-yl)-4-(2-oxo-1,2,5,6,7,8-hexahydro-5,8-methanoquinoline-3-yl)piperidine-1-formamide]

Structure (SMILES): Cc1cc(C[C@@H](NC(=O)N2CCC(c3cc4c([nH]c3=O)SCC=C4)CC2)C(=O)N2CCN(C3CCN(C)CC3)CC2)cc2cn[nH]c12 [Example 48, (R)-N-(3-(7-methyl-1H-indazole-5-yl)-1-(4-(1-methylpiperidine-4-yl)piperazine-1-yl)-1-oxopropan-2-yl)-4-(7-oxo-7,8-dihydro-2H-thiopyrano[2,3-b]pyridine-6-yl)piperidine-1-formamide]
- IC50 (CGRP receptor complex): 0.15 nM

- Tmax(DDM 5%)/ Tmax(DDM 0%) [5]: 50%
- % remaining (60 min) [2]: 95.5%
- % remaining (60 min) ([3]; Monkey liver microsomes): 72.1%
- Tmax ([7]; 0.2% DDM): 12.5 min
- Tmax ([7]; not added with DDM (0%DDM)): 15 min
- Tmax(DDM 0.2%)/ Tmax(DDM 0%) ([7]; intranasal, 0.2% dodecyl-β-D-maltoside (DDM) vs without DDM): 83.6%
- % remaining (60 min) [4]: 57.5%
Structure (SMILES): Cc1cc(C[C@@H](NC(=O)N2CCC(c3cc4ccccc4[nH]c3=O)CC2)C(=O)N2CCN(C3CCN(C)CC3)CC2)cc2cn[nH]c12 [Zavegepant, zavegepant, reference compound]
- AUC [6]: no obvious changes
- Cmax [6]: no obvious changes
- Tmax [6]: prolonged to some extent
